Species on record: Rattus norvegicus
Test: Open TG-GATES - Regimen: Single
Format: toxicity, organism-based, Sprague-Dawley
Design: regimen Single, gender Male, age 6 weeks
Details: in vivo, po, 6 mg/kg, route gavage, dose level Middle; for APTT / Bas / Eos / Fbg / Hb / Lym / MCH / MCHC / MCV / Mono / Neu / PT / Plat / RBC / Ret / WBC: tissue Blood; for KIDNEY_L / KIDNEY_R / KIDNEY_TOTAL: tissue Kidney; for LIVER: tissue Liver; for ALP / ALT / AST / BUN / CRE / Ca / Cl / DBIL / GLC / IP / K / LDH / Na / PL / RALB / TBIL / TC / TG / TP / gamma-GTP: tissue Plasma

OCCN1CCN(CCCN2c3ccccc3Sc3ccc(C(F)(F)F)cc32)CC1 [FLUPHENAZINE]
TERMINAL_BW (3 h): 196.9 g | APTT (3 h): 16 s | Bas (3 h): 0% | Eos (3 h): 0.6% | Fbg (3 h): 213.6 mg/dL | Hb (3 h): 12.8 g/dL | Lym (3 h): 75% | MCH (3 h): 21.2 pg | MCHC (3 h): 32.9% | MCV (3 h): 64.2 fL | Mono (3 h): 9.2% | Neu (3 h): 15.2% | PT (3 h): 12.5 s | Plat (3 h): 98.9 x10_4/uL | RBC (3 h): 607.8 x10_4/ul | Ret (3 h): 7.7% | WBC (3 h): 78.7 x10_2/uL | KIDNEY_L (3 h): 0.9 g | KIDNEY_R (3 h): 0.9 g | KIDNEY_TOTAL (3 h): 1.8 g | LIVER (3 h): 9.1 g | ALP (3 h): 915 IU/L | ALT (3 h): 35.8 IU/L | AST (3 h): 63.2 IU/L | BUN (3 h): 10 mg/dL | CRE (3 h): 0.5 mg/dL | Ca (3 h): 10.3 mg/dL | Cl (3 h): 105.4 meq/L | DBIL (3 h): 0.008 mg/dL | GLC (3 h): 191 mg/dL | IP (3 h): 10.4 mg/dL | K (3 h): 4.4 meq/L | LDH (3 h): 91.6 IU/L | Na (3 h): 138.2 meq/L | PL (3 h): 136.6 mg/dL | RALB (3 h): 3.6 g/dL | TBIL (3 h): 0.4 mg/dL | TC (3 h): 77.2 mg/dL | TG (3 h): 48 mg/dL | TP (3 h): 5.3 g/dL | gamma-GTP (3 h): 1.8 IU/L | TERMINAL_BW (6 h): 195.2 g | APTT (6 h): 16.4 s | Bas (6 h): 0% | Eos (6 h): 0.8% | Fbg (6 h): 211.6 mg/dL | Hb (6 h): 13.2 g/dL | Lym (6 h): 74.4% | MCH (6 h): 21.3 pg | MCHC (6 h): 32.8% | MCV (6 h): 64.9 fL | Mono (6 h): 9.4% | Neu (6 h): 15.8% | PT (6 h): 12.3 s | Plat (6 h): 113.8 x10_4/uL | RBC (6 h): 620.4 x10_4/ul | Ret (6 h): 8.6% | WBC (6 h): 89.6 x10_2/uL | KIDNEY_L (6 h): 0.9 g | KIDNEY_R (6 h): 0.9 g | KIDNEY_TOTAL (6 h): 1.8 g | LIVER (6 h): 8.8 g | ALP (6 h): 722.4 IU/L | ALT (6 h): 30 IU/L | AST (6 h): 56.2 IU/L | BUN (6 h): 10.4 mg/dL | CRE (6 h): 0.5 mg/dL | Ca (6 h): 10.2 mg/dL | Cl (6 h): 105.6 meq/L | DBIL (6 h): 0.014 mg/dL | GLC (6 h): 196 mg/dL | IP (6 h): 10.2 mg/dL | K (6 h): 4.7 meq/L | LDH (6 h): 90.8 IU/L | Na (6 h): 136 meq/L | PL (6 h): 144.4 mg/dL | RALB (6 h): 3.6 g/dL | TBIL (6 h): 0.4 mg/dL | TC (6 h): 84.6 mg/dL | TG (6 h): 26.8 mg/dL | TP (6 h): 5.3 g/dL | gamma-GTP (6 h): 1.4 IU/L | TERMINAL_BW (9 h): 194 g | APTT (9 h): 16.5 s | Bas (9 h): 0% | Eos (9 h): 0.6% | Fbg (9 h): 227 mg/dL | Hb (9 h): 13.2 g/dL | Lym (9 h): 79.2% | MCH (9 h): 22.1 pg | MCHC (9 h): 33.3% | MCV (9 h): 66.3 fL | Mono (9 h): 5.8% | Neu (9 h): 14.8% | PT (9 h): 12.5 s | Plat (9 h): 112.2 x10_4/uL | RBC (9 h): 598.2 x10_4/ul | Ret (9 h): 7.8% | WBC (9 h): 74.5 x10_2/uL | KIDNEY_L (9 h): 0.9 g | KIDNEY_R (9 h): 1 g | KIDNEY_TOTAL (9 h): 1.9 g | LIVER (9 h): 7.9 g | ALP (9 h): 730.2 IU/L | ALT (9 h): 30.4 IU/L | AST (9 h): 54.2 IU/L | BUN (9 h): 9.2 mg/dL | CRE (9 h): 0.5 mg/dL | Ca (9 h): 10.1 mg/dL | Cl (9 h): 106.2 meq/L | DBIL (9 h): 0.038 mg/dL | GLC (9 h): 189 mg/dL | IP (9 h): 10.5 mg/dL | K (9 h): 4.2 meq/L | LDH (9 h): 83.8 IU/L | Na (9 h): 138.4 meq/L | PL (9 h): 133.2 mg/dL | RALB (9 h): 3.7 g/dL | TBIL (9 h): 0.4 mg/dL | TC (9 h): 80.6 mg/dL | TG (9 h): 21.4 mg/dL | TP (9 h): 5.5 g/dL | gamma-GTP (9 h): 1.8 IU/L | TERMINAL_BW (24 h): 201.5 g | APTT (24 h): 16.7 s | Bas (24 h): 0% | Eos (24 h): 1.2% | Fbg (24 h): 208 mg/dL | Hb (24 h): 13.7 g/dL | Lym (24 h): 81.4% | MCH (24 h): 21.6 pg | MCHC (24 h): 33.2% | MCV (24 h): 64.9 fL | Mono (24 h): 9% | Neu (24 h): 8.6% | PT (24 h): 11.9 s | Plat (24 h): 112.8 x10_4/uL | RBC (24 h): 636 x10_4/ul | Ret (24 h): 7.3% | WBC (24 h): 85.5 x10_2/uL | KIDNEY_L (24 h): 0.9 g | KIDNEY_R (24 h): 0.9 g | KIDNEY_TOTAL (24 h): 1.8 g | LIVER (24 h): 9.6 g | ALP (24 h): 748.4 IU/L | ALT (24 h): 28.2 IU/L | AST (24 h): 56.6 IU/L | BUN (24 h): 23.8 mg/dL | CRE (24 h): 0.5 mg/dL | Ca (24 h): 11 mg/dL | Cl (24 h): 103.6 meq/L | DBIL (24 h): 0.03 mg/dL | GLC (24 h): 176.8 mg/dL | IP (24 h): 8 mg/dL | K (24 h): 5 meq/L | LDH (24 h): 90 IU/L | Na (24 h): 137.2 meq/L | PL (24 h): 154.6 mg/dL | RALB (24 h): 4.2 g/dL | TBIL (24 h): 0.3 mg/dL | TC (24 h): 84.4 mg/dL | TG (24 h): 94.4 mg/dL | TP (24 h): 6.1 g/dL | gamma-GTP (24 h): 1.2 IU/L
